Results published in patent US9108944B2, “Androgen receptor modulators and uses thereof” (ARAGON PHARMACEUTICALS, INC., priority 2010, dated 2015).

Legend:
[1] = biological target: T1, AR-VP16 (Homo sapiens, UniProt P10275); assay: AR-VP16 DNA Binding Assay, agonist mode (HepG2 cells); type: cell-based; conditions: Emax >20x DMSO control = agonist
T1 sequence (P10275 560-920 limits assumed): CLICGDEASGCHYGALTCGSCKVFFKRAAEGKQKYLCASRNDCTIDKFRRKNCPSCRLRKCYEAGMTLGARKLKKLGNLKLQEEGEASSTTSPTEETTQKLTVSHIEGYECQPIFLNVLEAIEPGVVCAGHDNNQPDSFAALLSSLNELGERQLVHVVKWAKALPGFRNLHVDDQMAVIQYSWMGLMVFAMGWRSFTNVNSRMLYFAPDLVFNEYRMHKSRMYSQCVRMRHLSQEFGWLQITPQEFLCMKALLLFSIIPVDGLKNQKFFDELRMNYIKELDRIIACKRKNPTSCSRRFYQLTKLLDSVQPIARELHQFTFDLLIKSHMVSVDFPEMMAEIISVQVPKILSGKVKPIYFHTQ

[2] = biological target: T1, AR-VP16; assay: AR-VP16 DNA Binding Assay, antagonist mode (HepG2 cells, 0.1 nM R1881); type: cell-based
Outline: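 Transfected HepG2 cells expressing AR-VP16 received serially diluted compound in charcoal-stripped-serum RPMI the day after transfection, with 0.1 nM R1881 (final) added only for antagonist testing. After 48 h, cells were lysed for measurement.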

N#Cc1ncc(N2C(=O)C3(CCC3)N(c3ccc(OCCC[S+]([O-])CCCC(F)(F)C(F)(F)F)c(F)c3)C2=S)cc1C(F)(F)F (stereo not drawn) [Compound 154, 5-(5-(3-Fluoro-4-(3-((4,4,5,5,5-pentafluoropentyl)sulfinyl)propoxy)phenyl)-8-oxo-6-thioxo-5,7-diazaspiro[3.4]octan-7-yl)-3-(trifluoromethyl)picolinonitrile]
ARVP16 DNA Binding Assay (Agonist mode): Agonist? [1]: No (Agonist defined as a compound whose Emax in the ARVP16 DNA Binding Assay (Agonist mode) is >20x DMSO control) | IC50 [2]: < 1 µM

O=C1N(c2ccc3nnc(C(F)(F)F)n3n2)C(=S)N(c2ccc(OCCc3ccccn3)cc2)C12CCC2 [Compound 155, 5-(4-(2-(Pyridin-2-yl)ethoxy)phenyl)-6-thioxo-7-(3-(trifluoromethyl)-[1,2,4]triazolo[4,3-b]pyridazin-6-yl)-5,7-diazaspiro[3.4]octan-8-one]
ARVP16 DNA Binding Assay (Agonist mode): Agonist? [1]: No (Agonist defined as a compound whose Emax in the ARVP16 DNA Binding Assay (Agonist mode) is >20x DMSO control) | IC50 [2]: > 1 µM

N#Cc1ncc(N2C(=O)C3(CCC3)N(c3ccc(F)c(OCCc4ccccn4)c3)C2=S)cc1C(F)(F)F [Compound 158, 5-(5-(4-Fluoro-3-(2-(pyridin-2-yl)ethoxy)phenyl)-8-oxo-6-thioxo-5,7-diazaspiro[3.4]octan-7-yl)-3-(trifluoromethyl)picolinonitrile]
ARVP16 DNA Binding Assay (Agonist mode): Agonist? [1]: No (Agonist defined as a compound whose Emax in the ARVP16 DNA Binding Assay (Agonist mode) is >20x DMSO control) | IC50 [2]: > 1 µM

N#Cc1ncc(N2C(=O)C3(CCC3)N(c3ccc(F)c(OCCc4cccnc4)c3)C2=S)cc1C(F)(F)F [Compound 159, 5-(5-(4-Fluoro-3-(2-(pyridin-3-yl)ethoxy)phenyl)-8-oxo-6-thioxo-5,7-diazaspiro[3.4]octan-7-yl)-3-(trifluoromethyl)picolinonitrile]
ARVP16 DNA Binding Assay (Agonist mode): Agonist? [1]: No (Agonist defined as a compound whose Emax in the ARVP16 DNA Binding Assay (Agonist mode) is >20x DMSO control) | IC50 [2]: > 1 µM

N#Cc1ncc(N2C(=O)C3(CCC3)N(c3ccc(F)c(OCCc4ccncc4)c3)C2=S)cc1C(F)(F)F [Compound 160, 5-(5-(4-Fluoro-3-(2-(pyridin-4-yl)ethoxy)phenyl)-8-oxo-6-thioxo-5,7-diazaspiro[3.4]octan-7-yl)-3-(trifluoromethyl)picolinonitrile]
ARVP16 DNA Binding Assay (Agonist mode): Agonist? [1]: No (Agonist defined as a compound whose Emax in the ARVP16 DNA Binding Assay (Agonist mode) is >20x DMSO control) | IC50 [2]: > 1 µM

N#Cc1ncc(N2C(=O)C3(CCC3)N(c3ccc(F)c(OCc4ccccc4)c3)C2=S)cc1C(F)(F)F [Compound 161, 5-(5-(3-(Benzyloxy)-4-fluorophenyl)-8-oxo-6-thioxo-5,7-diazaspiro[3.4]octan-7-yl)-3-(trifluoromethyl)picolinonitrile]
ARVP16 DNA Binding Assay (Agonist mode): Agonist? [1]: No (Agonist defined as a compound whose Emax in the ARVP16 DNA Binding Assay (Agonist mode) is >20x DMSO control) | IC50 [2]: > 1 µM

N#Cc1ncc(N2C(=O)C3(CCC3)N(c3ccc(F)c(OCCc4ccccc4)c3)C2=S)cc1C(F)(F)F [Compound 162, 5-(5-(4-Fluoro-3-phenethoxyphenyl)-8-oxo-6-thioxo-5,7-diazaspiro[3.4]octan-7-yl)-3-(trifluoromethyl)picolinonitrile]
ARVP16 DNA Binding Assay (Agonist mode): Agonist? [1]: No (Agonist defined as a compound whose Emax in the ARVP16 DNA Binding Assay (Agonist mode) is >20x DMSO control) | IC50 [2]: > 1 µM

N#Cc1ncc(N2C(=O)C3(CCC3)N(c3ccc(F)c(OCCCc4ccccc4)c3)C2=S)cc1C(F)(F)F [Compound 163, 5-(5-(4-Fluoro-3-(3-phenylpropoxy)phenyl)-8-oxo-6-thioxo-5,7-diazaspiro[3.4]octan-7-yl)-3-(trifluoromethyl)picolinonitrile]
ARVP16 DNA Binding Assay (Agonist mode): Agonist? [1]: No (Agonist defined as a compound whose Emax in the ARVP16 DNA Binding Assay (Agonist mode) is >20x DMSO control) | IC50 [2]: > 1 µM

N#Cc1ncc(N2C(=O)C3(CCC3)N(c3ccc(F)c(OCCN4CCOCC4)c3)C2=S)cc1C(F)(F)F [Compound 164, 5-(5-(4-Fluoro-3-(2-morpholinoethoxy)phenyl)-8-oxo-6-thioxo-5,7-diazaspiro[3.4]octan-7-yl)-3-(trifluoromethyl)picolinonitrile]
ARVP16 DNA Binding Assay (Agonist mode): Agonist? [1]: No (Agonist defined as a compound whose Emax in the ARVP16 DNA Binding Assay (Agonist mode) is >20x DMSO control) | IC50 [2]: > 1 µM

N#Cc1ncc(N2C(=O)C3(CCC3)N(c3ccc(F)c(OCCCN4CCOCC4)c3)C2=S)cc1C(F)(F)F [Compound 165, 5-(5-(4-Fluoro-3-(3-morpholinopropoxy)phenyl)-8-oxo-6-thioxo-5,7-diazaspiro[3.4]octan-7-yl)-3-(trifluoromethyl)picolinonitrile]
ARVP16 DNA Binding Assay (Agonist mode): Agonist? [1]: No (Agonist defined as a compound whose Emax in the ARVP16 DNA Binding Assay (Agonist mode) is >20x DMSO control) | IC50 [2]: > 1 µM

CN1CCN(CCOc2cc(N3C(=S)N(c4cnc(C#N)c(C(F)(F)F)c4)C(=O)C34CCC4)ccc2F)CC1 [Compound 166, 5-(5-(4-Fluoro-3-(2-(4-methylpiperazin-1-yl)ethoxy)phenyl)-8-oxo-6-thioxo-5,7-diazaspiro[3.4]octan-7-yl)-3-(trifluoromethyl)picolinonitrile]
ARVP16 DNA Binding Assay (Agonist mode): Agonist? [1]: No (Agonist defined as a compound whose Emax in the ARVP16 DNA Binding Assay (Agonist mode) is >20x DMSO control) | IC50 [2]: > 1 µM

CN1CCN(CCCOc2cc(N3C(=S)N(c4cnc(C#N)c(C(F)(F)F)c4)C(=O)C34CCC4)ccc2F)CC1 [Compound 167, 5-(5-(4-Fluoro-3-(3-(4-methylpiperazin-1-yl)propoxy)phenyl)-8-oxo-6-thioxo-5,7-diazaspiro[3.4]octan-7-yl)-3-(trifluoromethyl)picolinonitrile]
ARVP16 DNA Binding Assay (Agonist mode): Agonist? [1]: No (Agonist defined as a compound whose Emax in the ARVP16 DNA Binding Assay (Agonist mode) is >20x DMSO control) | IC50 [2]: > 1 µM

COCCOc1ccc(N2C(=S)N(c3cnc(C#N)c(C)c3)C(=O)C23CCC3)cc1F [Compound 168, 5-(5-(3-Fluoro-4-(2-methoxyethoxy)phenyl)-8-oxo-6-thioxo-5,7-diazaspiro[3.4]octan-7-yl)-3-methylpicolinonitrile]
ARVP16 DNA Binding Assay (Agonist mode): Agonist? [1]: No (Agonist defined as a compound whose Emax in the ARVP16 DNA Binding Assay (Agonist mode) is >20x DMSO control) | IC50 [2]: < 1 µM

Cc1cc(N2C(=O)C3(CCC3)N(c3ccc(OCCc4ccccn4)c(F)c3)C2=S)cnc1C#N [Compound 169, 5-(5-(3-Fluoro-4-(2-(pyridin-2-yl)ethoxy)phenyl)-8-oxo-6-thioxo-5,7-diazaspiro[3.4]octan-7-yl)-3-methylpicolinonitrile]
ARVP16 DNA Binding Assay (Agonist mode): Agonist? [1]: No (Agonist defined as a compound whose Emax in the ARVP16 DNA Binding Assay (Agonist mode) is >20x DMSO control) | IC50 [2]: < 1 µM

Cc1cc(N2C(=O)C3(CCC3)N(c3ccc(OCCN4CCN(C)CC4)c(F)c3)C2=S)cnc1C#N [Compound 170, 5-(5-(3-Fluoro-4-(2-(4-methylpiperazin-1-yl)ethoxy)phenyl)-8-oxo-6-thioxo-5,7-diazaspiro[3.4]octan-7-yl)-3-methylpicolinonitrile]
ARVP16 DNA Binding Assay (Agonist mode): Agonist? [1]: Yes (Agonist defined as a compound whose Emax in the ARVP16 DNA Binding Assay (Agonist mode) is >20x DMSO control) | IC50 [2]: < 1 µM
